In ChEMBL document CHEMBL1275538, “In vitro activity of OPT-80 tested against clinical isolates of toxin-producing Clostridium difficile” (Antimicrob Agents Chemother, 2008):
≈ marks a conversion by molar mass, not a printed value.

How the values were obtained:
[1] = system: Clostridioides difficile; assay: Antibacterial activity against toxin-positive Clostridium difficile clinical isolate by agar dilution method in presence of clavulanic acid; format: functional
[2] = system: Clostridioides difficile; assay: Antibacterial activity against toxin-positive Clostridium difficile clinical isolate by agar dilution method; format: functional
[3] = system: Clostridioides difficile; assay: Antibacterial activity against toxin-positive Clostridium difficile clinical isolate assessed as percent of susceptible isolates by agar dilution method; format: functional
[4] = system: Clostridioides difficile; assay: Antibacterial activity against Clostridium difficile by broth microdilution method using Wilkins-Chalgren broth; format: functional
[5] = system: Clostridioides difficile; assay: Antibacterial activity against Clostridium difficile by agar dilution method using Wilkins-Chalgren agar; format: functional
[6] = Cmax in syrian golden hamster serum at 200 mg administered BID after 1.5 hrs; format: ADME, organism-based, Mesocricetus auratus; parameters: dose 200 mg
[7] = Apparent elimination half-life in syrian golden hamster at 400 mg/kg; format: ADME, organism-based, Mesocricetus auratus; parameters: dose 400 mg/kg; details: in vivo, read-out: beta t1/2 (converted)
[8] = system: Clostridioides difficile; assay: Antibacterial activity against Clostridium difficile by M11-A7 CLSI agar dilution; format: functional
[9] = system: Clostridioides difficile; assay: Antibacterial activity against Clostridium difficile by M11-A6 CLSI agar dilution; format: functional
[10] = system: Clostridioides difficile; assay: Antibacterial activity against Clostridium difficile by M11-A5 CLSI agar dilution; format: functional
[11] = system: Clostridioides difficile; assay: Antibacterial activity against toxin-positive Clostridium difficile clinical isolate by agar dilution method in presence of Tazobactam; format: functional

## CC1(C)S[C@@H]2[C@H](NC(=O)[C@H](N)c3ccc(O)cc3)C(=O)N2[C@H]1C(=O)O [AMOXICILLIN]
[1]
  MIC50: 1 µg/mL
  MIC90: 1 µg/mL

## CO/N=C(\C(=O)N[C@@H]1C(=O)N2C(C(=O)O)=C(CSc3nc(=O)c(O)nn3C)CS[C@H]12)c1csc(N)n1 [CEFTRIAXONE]
[2]
  MIC50: 32 µg/mL (≈ 57.7 µM)
  MIC90: 128 µg/mL (≈ 231 µM)
[3]
  Activity: 1%

## CCC[C@@H]1C[C@@H](C(=O)N[C@@H]([C@H]2O[C@H](SC)[C@H](O)[C@@H](O)[C@H]2O)[C@H](C)Cl)N(C)C1 [CLINDAMYCIN]
[2]
  MIC50: 8 µg/mL (≈ 18.8 µM)
  MIC90: > 16 µg/mL
[3]
  Activity: 17.3%

## CCc1c(Cl)c(O)c(Cl)c(O)c1C(=O)O[C@H]1[C@H](O)[C@H](OC)[C@H](OC/C2=C\C=C\C[C@H](O)/C(C)=C/[C@H](CC)[C@@H](O[C@@H]3OC(C)(C)[C@@H](OC(=O)C(C)C)[C@H](O)[C@@H]3O)/C(C)=C/C(C)=C/C[C@@H]([C@@H](C)O)OC2=O)O[C@@H]1C [FIDAXOMICIN]
[2]
  MIC50: 0.25 µg/mL (≈ 0.236 µM)
  MIC90: 0.5 µg/mL (≈ 0.473 µM)
[4]
  MIC50: 0.0019 µg/mL (≈ 0.0018 µM)
  MIC90: 0.0078 µg/mL (≈ 0.00737 µM)
[5]
  MIC50: 0.25 µg/mL (≈ 0.236 µM)
  MIC90: 0.25 µg/mL (≈ 0.236 µM)
[6]
  Cmax: 26.5 ng/mL
[7]
  half-life: 56.4 min
[8]
  MIC50: 0.25 µg/mL (≈ 0.236 µM)
  MIC90: 0.5 µg/mL (≈ 0.473 µM)
[9]
  MIC50: 0.125 µg/mL (≈ 0.118 µM)
  MIC90: 0.125 µg/mL (≈ 0.118 µM)
[10]
  MIC: ≤ 0.06 µg/mL
  MIC50: ≤ 0.016 µg/mL
  MIC90: 0.125 µg/mL (≈ 0.118 µM)

## C[C@@H](O)[C@H]1C(=O)N2C(C(=O)O)=C(S[C@@H]3CN[C@H](C(=O)N(C)C)C3)[C@H](C)[C@H]12 [MEROPENEM]
[2]
  MIC50: 2 µg/mL (≈ 5.22 µM)
  MIC90: 2 µg/mL (≈ 5.22 µM)

## CCN1CCN(C(=O)N[C@@H](C(=O)N[C@@H]2C(=O)N3[C@@H]2SC(C)(C)[C@@H]3C(=O)O)c2ccccc2)C(=O)C1=O [PIPERACILLIN]
[11]
  MIC50: 8 µg/mL
  MIC90: 8 µg/mL

## CO[C@H]1/C=C/O[C@@]2(C)Oc3c(C)c(O)c4c(O)c(c(/C=N/N5CCN(C)CC5)c(O)c4c3C2=O)NC(=O)/C(C)=C\C=C\[C@H](C)[C@H](O)[C@@H](C)[C@@H](O)[C@@H](C)[C@H](OC(C)=O)[C@@H]1C [RIFAMPIN]
[2]
  MIC50: 0.015 µg/mL (≈ 0.0182 µM)
  MIC90: 0.015 µg/mL (≈ 0.0182 µM)
